The term IC50 denotes the concentration that gives 50% inhibition. A higher IC50 goes with a need for much substance.

Molecules are shown by their SMILES.

purified human, His-tagged PRC2 complex, sequence (O75530 whole entry): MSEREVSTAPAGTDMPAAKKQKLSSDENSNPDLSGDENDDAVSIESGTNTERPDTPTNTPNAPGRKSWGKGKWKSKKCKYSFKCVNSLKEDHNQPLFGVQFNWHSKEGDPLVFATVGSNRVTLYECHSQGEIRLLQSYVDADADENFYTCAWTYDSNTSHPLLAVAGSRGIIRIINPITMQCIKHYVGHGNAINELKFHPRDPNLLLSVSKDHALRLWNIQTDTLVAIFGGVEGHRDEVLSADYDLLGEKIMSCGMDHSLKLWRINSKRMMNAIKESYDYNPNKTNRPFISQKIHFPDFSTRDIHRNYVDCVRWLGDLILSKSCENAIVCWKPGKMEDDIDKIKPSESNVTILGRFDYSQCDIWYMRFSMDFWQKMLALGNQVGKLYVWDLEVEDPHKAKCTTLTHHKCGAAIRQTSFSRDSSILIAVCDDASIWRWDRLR
purified human, His-tagged PRC2 complex, sequence (Q15910 whole entry partner): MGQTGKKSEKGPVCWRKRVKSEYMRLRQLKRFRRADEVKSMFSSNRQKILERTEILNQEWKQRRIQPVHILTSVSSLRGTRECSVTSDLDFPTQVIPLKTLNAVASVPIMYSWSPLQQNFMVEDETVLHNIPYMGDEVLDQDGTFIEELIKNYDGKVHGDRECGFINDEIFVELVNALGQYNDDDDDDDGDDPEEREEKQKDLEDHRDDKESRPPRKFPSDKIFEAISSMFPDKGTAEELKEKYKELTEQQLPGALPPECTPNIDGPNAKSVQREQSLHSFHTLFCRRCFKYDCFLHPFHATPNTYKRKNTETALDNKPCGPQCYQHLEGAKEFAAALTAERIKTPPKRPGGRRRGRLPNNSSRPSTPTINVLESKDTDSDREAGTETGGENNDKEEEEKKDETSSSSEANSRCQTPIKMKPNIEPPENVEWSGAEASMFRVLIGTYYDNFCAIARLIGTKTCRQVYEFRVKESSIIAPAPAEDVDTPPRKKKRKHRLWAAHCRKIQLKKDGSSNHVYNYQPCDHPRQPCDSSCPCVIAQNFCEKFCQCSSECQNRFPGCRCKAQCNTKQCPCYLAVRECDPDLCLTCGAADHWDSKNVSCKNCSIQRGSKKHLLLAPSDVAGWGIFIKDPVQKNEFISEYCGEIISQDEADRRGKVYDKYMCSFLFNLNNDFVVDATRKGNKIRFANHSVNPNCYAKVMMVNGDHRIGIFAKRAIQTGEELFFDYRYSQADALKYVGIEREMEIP
purified human, His-tagged PRC2 complex, sequence (Q15022 whole entry partner): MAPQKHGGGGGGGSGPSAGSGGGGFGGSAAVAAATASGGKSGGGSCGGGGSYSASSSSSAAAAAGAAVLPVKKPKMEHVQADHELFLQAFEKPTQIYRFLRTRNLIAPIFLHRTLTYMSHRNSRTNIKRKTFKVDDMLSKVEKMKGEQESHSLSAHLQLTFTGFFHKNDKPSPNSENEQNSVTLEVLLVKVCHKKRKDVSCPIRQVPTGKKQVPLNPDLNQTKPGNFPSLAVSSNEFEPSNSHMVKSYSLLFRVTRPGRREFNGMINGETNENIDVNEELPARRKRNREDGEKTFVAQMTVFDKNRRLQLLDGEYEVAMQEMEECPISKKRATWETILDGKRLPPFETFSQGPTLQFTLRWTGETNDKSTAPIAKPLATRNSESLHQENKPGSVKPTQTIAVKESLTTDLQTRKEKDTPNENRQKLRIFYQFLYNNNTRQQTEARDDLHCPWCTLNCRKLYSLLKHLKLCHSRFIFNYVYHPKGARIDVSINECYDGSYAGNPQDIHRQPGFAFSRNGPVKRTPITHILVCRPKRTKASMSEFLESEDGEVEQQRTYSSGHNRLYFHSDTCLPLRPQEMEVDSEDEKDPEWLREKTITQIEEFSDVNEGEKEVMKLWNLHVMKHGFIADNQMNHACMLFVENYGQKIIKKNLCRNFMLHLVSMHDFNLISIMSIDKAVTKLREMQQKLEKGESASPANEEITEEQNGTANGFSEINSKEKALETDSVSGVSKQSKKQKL
purified human, His-tagged PRC2 complex, sequence (Q6ZN18 whole entry partner): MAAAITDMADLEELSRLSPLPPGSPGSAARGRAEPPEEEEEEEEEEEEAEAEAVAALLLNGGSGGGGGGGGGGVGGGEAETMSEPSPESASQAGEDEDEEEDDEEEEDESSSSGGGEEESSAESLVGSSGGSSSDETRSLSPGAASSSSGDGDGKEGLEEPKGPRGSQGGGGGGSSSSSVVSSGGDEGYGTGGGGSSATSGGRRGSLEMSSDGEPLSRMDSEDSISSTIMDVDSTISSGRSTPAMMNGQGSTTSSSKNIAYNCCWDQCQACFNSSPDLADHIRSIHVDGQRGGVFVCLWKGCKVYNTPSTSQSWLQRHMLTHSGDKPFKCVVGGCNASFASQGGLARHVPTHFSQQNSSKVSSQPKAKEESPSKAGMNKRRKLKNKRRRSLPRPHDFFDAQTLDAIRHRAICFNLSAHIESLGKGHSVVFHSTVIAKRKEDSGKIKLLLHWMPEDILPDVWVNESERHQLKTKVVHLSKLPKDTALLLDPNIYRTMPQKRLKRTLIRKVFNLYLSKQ
purified human, His-tagged PRC2 complex, sequence (Q09028 whole entry partner): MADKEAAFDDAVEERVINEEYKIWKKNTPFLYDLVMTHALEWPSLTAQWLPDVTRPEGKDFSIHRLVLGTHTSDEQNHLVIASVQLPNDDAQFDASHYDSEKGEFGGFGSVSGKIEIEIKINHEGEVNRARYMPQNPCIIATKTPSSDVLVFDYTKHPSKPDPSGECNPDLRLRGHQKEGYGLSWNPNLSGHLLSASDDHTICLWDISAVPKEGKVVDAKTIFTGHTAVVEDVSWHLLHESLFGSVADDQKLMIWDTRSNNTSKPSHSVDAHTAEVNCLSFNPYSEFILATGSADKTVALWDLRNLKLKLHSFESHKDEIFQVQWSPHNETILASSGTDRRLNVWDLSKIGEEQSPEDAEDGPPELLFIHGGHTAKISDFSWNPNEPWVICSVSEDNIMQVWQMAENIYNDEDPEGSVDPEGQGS

The target of the test is purified human, His-tagged PRC2 complex (Homo sapiens (Human), UniProt O75530). The test can be described thus: Hot Spot HMT assay, inhibition of PRC2 enzymatic activity. The format is biochemical. The note with it: 10 nM PRC2 complex, 1 μM 3H-SAM, core histone H3, 10-point dose-response. An outline of the steps:
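Methyl transfer from 1 μM tritiated SAM onto 0.05 mg/ml core histone H3, catalysed by 10 nM His/Flag-tagged human PRC2 holoenzyme, was run 1 hr at 30° C after a 20 min compound preincubation. Serial dilutions began at 1.0 μM; product captured on filters and counted.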
As for `Cc1cc(-c2cnc(NCc3c(F)ccc4c3CCCO4)n3cc(C#N)nc23)n(C)n1` [Example 122, 8-(1,3-dimethyl-1H-pyrazol-5-yl)-5-(((6-fluorochroman-5-yl)methyl)amino)imidazo[1,2-c]pyrimidine-2-carbonitrile], the half-maximal inhibitory concentration (IC50) was greater than 500 nM.

Molecule `N#Cc1cn2c(NCc3c(F)ccc4c3CCO4)ncc(C3CCOCC3)c2n1` [Example 141, 5-(((5-fluoro-2,3-dihydrobenzofuran-4-yl)methyl)amino)-8-(tetrahydro-2H-pyran-4-yl)imidazo[1,2-c]pyrimidine-2-carbonitrile] gave a 50% inhibitory concentration (IC50) greater than 500 nM.

For the molecule `CNC(=O)c1cn2c(NCc3c(F)ccc4c3CCO4)ncc(-c3cc(C)nn3C)c2n1` [Example 20, 8-(1,3-dimethyl-1H-pyrazol-5-yl)-5-(((5-fluoro-2,3-dihydrobenzofuran-4-yl)methyl)amino)-N-methylimidazo[1,2-c]pyrimidine-2-carboxamide], the concentration for half-maximal inhibition (IC50) is less than 100 nM.

On to `COCCOc1ccc(-c2cnc(NCc3c(F)ccc4c3CCO4)n3cc(C#N)nc23)c(C)c1` [Example 206, 5-(((5-fluoro-2,3-dihydrobenzofuran-4-yl)methyl)amino)-8-(4-(2-methoxyethoxy)-2-methylphenyl)imidazo[1,2-c]pyrimidine-2-carbonitrile], for which the IC50 is 100 to 500 nM.

In the case of `CC(C)Oc1ccc(-c2cnc(NCc3c(F)ccc4c3CCO4)n3cc(C#N)nc23)cn1` [Example 133, 5-(((5-fluoro-2,3-dihydrobenzofuran-4-yl)methyl)amino)-8-(6-isopropoxypyridin-3-yl)imidazo[1,2-c]pyrimidine-2-carbonitrile], the IC50 is less than 100 nM.

`Cc1ncc(-c2cnc(NCc3c(F)ccc4c3CCO4)n3cc(C#N)nc23)cn1` [Example 69, 5-(((5-fluoro-2,3-dihydrobenzofuran-4-yl)methyl)amino)-8-(2-methylpyrimidin-5-yl)imidazo[1,2-c]pyrimidine-2-carbonitrile]: the half-maximal inhibitory concentration (IC50) is less than 100 nM.

In turn, `N#Cc1cn2c(NCc3c(F)ccc4c3CCO4)ncc(-c3ccc(S(N)(=O)=O)cc3)c2n1` [Example 47, 4-(2-cyano-5-(((5-fluoro-2,3-dihydrobenzofuran-4-yl)methyl)amino)imidazo[1,2-c]pyrimidin-8-yl)benzenesulfonamide] gave an IC50 of less than 100 nM.

Molecule `CN(C)Cc1ccc(-c2cnc(NCc3c(F)ccc4c3CCO4)n3cc(C#N)nc23)c(F)c1` [Example 61, 8-(4-((dimethylamino)methyl)-2-fluorophenyl)-5-(((5-fluoro-2,3-dihydrobenzofuran-4-yl)methyl)amino)imidazo[1,2-c]pyrimidine-2-carbonitrile] yielded an IC50 of less than 100 nM.

Regarding `N#Cc1cn2c(NCc3c(F)ccc4c3CCO4)ncc(-c3cnn(C4COC4)c3)c2n1` [Example 106, 5-(((5-fluoro-2,3-dihydrobenzofuran-4-yl)methyl)amino)-8-(1-(oxetan-3-yl)-1H-pyrazol-4-yl)imidazo[1,2-c]pyrimidine-2-carbonitrile], the half-inhibitory concentration (IC50) lay in the range of 100 to 500 nM.

As to `CN(C)c1ccc(-c2cnc(NCc3c(F)ccc4c3CCO4)n3cc(C#N)nc23)cn1` [Example 60, 8-(6-(dimethylamino)pyridin-3-yl)-5-(((5-fluoro-2,3-dihydrobenzofuran-4-yl)methyl)amino)imidazo[1,2-c]pyrimidine-2-carbonitrile], the IC50 lay in the range of 100 to 500 nM.

Molecule `N#Cc1cn2c(NCc3c(F)ccc4c3CCO4)ncc(-c3ccn(CC4CCCO4)n3)c2n1` (centres unmarked) [Example 153, 5-(((5-fluoro-2,3-dihydrobenzofuran-4-yl)methyl)amino)-8-(1-((tetrahydrofuran-2-yl)methyl)-1H-pyrazol-3-yl)imidazo[1,2-c]pyrimidine-2-carbonitrile] yielded an IC50 of 100 to 500 nM.

`COC(=O)c1ccc(-c2cnc(NCc3c(F)ccc4c3CCO4)n3cc(C#N)nc23)cn1` [Example 166, methyl 5-(2-cyano-5-(((5-fluoro-2,3-dihydrobenzofuran-4-yl)methyl)amino)imidazo[1,2-c]pyrimidin-8-yl)picolinate] came in with an IC50 of less than 100 nM.

`COc1cc(C)c(-c2cnc(NCc3c(F)ccc4c3CCO4)n3cc(C(N)=O)nc23)cn1` [Example 14, 5-(((5-fluoro-2,3-dihydrobenzofuran-4-yl)methyl)amino)-8-(6-methoxy-4-methylpyridin-3-yl)imidazo[1,2-c]pyrimidine-2-carboxamide] registered an IC50 of 100 to 500 nM.

The molecule `N#Cc1cn2c(NCc3c(F)ccc4c3CCO4)ncc(-c3ccc(CN4CCCC4=O)cc3)c2n1` [Example 49, 5-(((5-fluoro-2,3-dihydrobenzofuran-4-yl)methyl)amino)-8-(4-((2-oxopyrrolidin-1-yl)methyl)phenyl)imidazo[1,2-c]pyrimidine-2-carbonitrile] registered an IC50 of less than 100 nM.

Molecule `CNS(=O)(=O)c1ccc(-c2cnc(NCc3c(F)ccc4c3CCO4)n3cc(C#N)nc23)cc1` [Example 59, 4-(2-cyano-5-(((5-fluoro-2,3-dihydrobenzofuran-4-yl)methyl)amino)imidazo[1,2-c]pyrimidin-8-yl)-N-methylbenzenesulfonamide] gave an IC50 of less than 100 nM.

In turn, `N#Cc1cn2c(NCc3c(F)ccc4c3CCO4)ncc(-c3ccc(-c4nnn[nH]4)cc3)c2n1` [Example 190, 8-(4-(1H-tetrazol-5-yl)phenyl)-5-(((5-fluoro-2,3-dihydrobenzofuran-4-yl)methyl)amino)imidazo[1,2-c]pyrimidine-2-carbonitrile] yielded a concentration for half-maximal inhibition (IC50) of less than 100 nM.

As for `Cc1cc(-c2cnc(NCc3cccc4c3CCO4)n3cc(C#N)nc23)n(C)n1` [Example 30, 5-(((2,3-dihydrobenzofuran-4-yl)methyl)amino)-8-(1,3-dimethyl-1H-pyrazol-5-yl)imidazo[1,2-c]pyrimidine-2-carbonitrile], the IC50 was in the range of 100 to 500 nM.

For `Cc1c(C#N)cccc1-c1cnc(NCc2c(F)ccc3c2CCO3)n2cc(C#N)nc12` [Example 176, 8-(3-cyano-2-methylphenyl)-5-(((5-fluoro-2,3-dihydrobenzofuran-4-yl)methyl)amino)imidazo[1,2-c]pyrimidine-2-carbonitrile], the IC50 is less than 100 nM.

For `CN(C)Cc1cc(F)c(-c2cnc(NCc3c(F)ccc4c3CCO4)n3cc(C#N)nc23)cc1F` [Example 39, 8-(4-((dimethylamino)methyl)-2,5-difluorophenyl)-5-(((5-fluoro-2,3-dihydrobenzofuran-4-yl)methyl)amino)imidazo[1,2-c]pyrimidine-2-carbonitrile], the concentration for half-maximal inhibition (IC50) is less than 100 nM.

As for `Cc1c(-c2cnc(NCc3c(F)ccc4c3CCO4)n3cc(C#N)nc23)ccc(CN(C)C)c1F` [Example 85, 8-(4-((dimethylamino)methyl)-3-fluoro-2-methylphenyl)-5-(((5-fluoro-2,3-dihydrobenzofuran-4-yl)methyl)amino)imidazo[1,2-c]pyrimidine-2-carbonitrile], the IC50 was less than 100 nM.

Regarding `CN1CCC1c1ccc(-c2cnc(NCc3c(F)ccc4c3CCO4)n3cc(C#N)nc23)cc1` (centres unmarked) [Example 221, 5-(((5-fluoro-2,3-dihydrobenzofuran-4-yl)methyl)amino)-8-(4-(1-methylazetidin-2-yl)phenyl)imidazo[1,2-c]pyrimidine-2-carbonitrile], the IC50 is less than 100 nM.

Molecule `Cn1nncc1-c1cnc(NCc2c(F)ccc3c2CCO3)n2cc(C#N)nc12` [Example 143, 5-(((5-fluoro-2,3-dihydrobenzofuran-4-yl)methyl)amino)-8-(1-methyl-1H-1,2,3-triazol-5-yl)imidazo[1,2-c]pyrimidine-2-carbonitrile] registered a half-inhibitory concentration (IC50) of less than 100 nM.

On to `Cc1cc(-c2cnc(NCc3c(F)ccc4c3CCO4)n3cc(C#N)nc23)ccc1CN(C)C` [Example 200, 8-(4-((dimethylamino)methyl)-3-methylphenyl)-5-(((5-fluoro-2,3-dihydrobenzofuran-4-yl)methyl)amino)imidazo[1,2-c]pyrimidine-2-carbonitrile], for which the IC50 lay in the range of 100 to 500 nM.

Turning to `COC1CCN(Cc2ccc(-c3cnc(NCc4c(F)ccc5c4CCO5)n4cc(C#N)nc34)cc2)C1` (centres unmarked) [Example 53, 5-(((5-fluoro-2,3-dihydrobenzofuran-4-yl)methyl)amino)-8-(4-((3-methoxypyrrolidin-1-yl)methyl)phenyl)imidazo[1,2-c]pyrimidine-2-carbonitrile], the 50% inhibitory concentration (IC50) is less than 100 nM.

Molecule `Cc1cn(-c2cnc(NCc3c(F)ccc4c3CCO4)n3cc(C(=O)O)nc23)cn1` [Example 4, 5-(((5-fluoro-2,3-dihydrobenzofuran-4-yl)methyl)amino)-8-(4-methyl-1H-imidazol-1-yl)imidazo[1,2-c]pyrimidine-2-carboxylic Acid] showed a half-inhibitory concentration (IC50) of less than 100 nM.

`Cc1cc(-c2cnc(NCc3cccc4c3CCO4)n3cc(C(N)=O)nc23)n(C)n1` [Example 19, 5-(((2,3-dihydrobenzofuran-4-yl)methyl)amino)-8-(1,3-dimethyl-1H-pyrazol-5-yl)imidazo[1,2-c]pyrimidine-2-carboxamide] gave an IC50 of less than 100 nM.

Turning to `N#Cc1cn2c(NCc3c(F)ccc4c3CCO4)ncc(-c3cc[nH]c(=O)c3)c2n1` [Example 218, 5-(((5-fluoro-2,3-dihydrobenzofuran-4-yl)methyl)amino)-8-(2-oxo-1,2-dihydropyridin-4-yl)imidazo[1,2-c]pyrimidine-2-carbonitrile], the 50% inhibitory concentration (IC50) is less than 100 nM.

Consider `N#Cc1cn2c(NCc3c(F)ccc4c3CCO4)ncc(-c3ccc([C@@H]4CCCN4)cc3)c2n1` [Example 219, (S)-5-(((5-fluoro-2,3-dihydrobenzofuran-4-yl)methyl)amino)-8-(4-(pyrrolidin-2-yl)phenyl)imidazo[1,2-c]pyrimidine-2-carbonitrile], for which the IC50 was less than 100 nM.

As for `Cc1n[nH]c(C)c1-c1cnc(NCc2c(F)ccc3c2CCO3)n2cc(C#N)nc12` [Example 104, 8-(3,5-dimethyl-1H-pyrazol-4-yl)-5-(((5-fluoro-2,3-dihydrobenzofuran-4-yl)methyl)amino)imidazo[1,2-c]pyrimidine-2-carbonitrile], the IC50 was greater than 500 nM.

The record behind these values is patent US20240398811A1, “PRC2 INHIBITORS FOR USE IN TREATING BLOOD DISORDERS” (ORIC Pharmaceuticals, Inc., priority 2021, published 2024).
